Experimental data published in ChEMBL document CHEMBL3102762, “A "natural" approach: synthesis and cytoxicity of monodesmosidic glycyrrhetinic acid glycosides” (Eur J Med Chem, 2014).
Calls of active or inactive are those of the source. The rule behind the calls is not given here.

Assays:
[1] = test system: A549; assay: Induction of apoptosis in human A549 cells by acridine orange/ethidium bromide staining; format: functional, cell-based
[2] = test system: MCF7; assay: Induction of apoptosis in human MCF7 cells at 30 uM by acridine orange/ethidium bromide staining; format: functional, cell-based
[3] = Cytotoxicity against human 518A2 cells by SRB assay; format: functional, cell-based
[4] = test system: NIH3T3; assay: Cytotoxicity against mouse NIH/3T3 cells by SRB assay; format: cell-based
[5] = test system: 8505C; assay: Cytotoxicity against human 8505C cells by SRB assay; format: functional, cell-based
[6] = Cytotoxicity against human A253 cells by SRB assay; format: functional, cell-based
[7] = Cytotoxicity against human DLD1 cells by SRB assay; format: functional, cell-based; settings: DLD-1
[8] = Cytotoxicity against human Lipo cells by SRB assay; format: functional, cell-based
[9] = test system: MCF7; assay: Cytotoxicity against human MCF7 cells by SRB assay; format: functional, cell-based
[10] = Cytotoxicity against human SW1736 cells by SRB assay; format: functional, cell-based; settings: SW-1736
[11] = test system: MCF7; assay: Induction of apoptosis in human MCF7 cells at 40 uM by acridine orange/ethidium bromide staining; format: functional, cell-based
[12] = test system: MCF7; assay: Induction of apoptosis in human MCF7 cells at 12 uM by acridine orange/ethidium bromide staining; format: functional, cell-based
[13] = test system: MCF7; assay: Induction of apoptosis in human MCF7 cells at 20 uM by acridine orange/ethidium bromide staining; format: functional, cell-based

Row | Compound | Activity [1] | Activity [2] | IC50 [3] [µM] | IC50 [4] [µM] | IC50 [5] [µM] | IC50 [6] [µM] | IC50 [7] [µM] | IC50 [8] [µM] | IC50 [9] [µM] | IC50 [10] [µM] | Activity [11] | Activity [12] | Activity [13]
1 | COC(=O)[C@@]1(C)CC[C@]2(C)CC[C@]3(C)C(=CC(=O)[C@@H]4[C@@]5(C)CC[C@H](O[C@@H]6O[C@H](CO)[C@H](O)[C@H](O)[C@H]6O)C(C)(C)[C@@H]5CC[C@]43C)[C@@H]2C1 | Active | Active | 23.3 | 23.4 | 22.8 | 19.7 | 23.2 | 23.2 | 20.1 | 21.4 | – | – | –
2 | COC(=O)[C@@]1(C)CC[C@]2(C)CC[C@]3(C)C(=CC(=O)[C@@H]4[C@@]5(C)CC[C@H](O[C@H]6OC[C@@H](O)[C@@H](O)[C@@H]6O)C(C)(C)[C@@H]5CC[C@]43C)[C@@H]2C1 | Active | – | > 30 | > 30 | > 30 | > 30 | > 30 | > 30 | > 30 | > 30 | Active | – | –
3 | COC(=O)[C@@]1(C)CC[C@]2(C)CC[C@]3(C)C(=CC(=O)[C@@H]4[C@@]5(C)CC[C@H](O[C@@H]6O[C@@H](C)[C@H](O)[C@@H](O)[C@H]6O)C(C)(C)[C@@H]5CC[C@]43C)[C@@H]2C1 | Active | Active | > 30 | > 30 | > 30 | > 30 | > 30 | > 30 | 19.6 | > 30 | – | – | –
4 | COC(=O)[C@@]1(C)CC[C@]2(C)CC[C@]3(C)C(=CC(=O)[C@@H]4[C@@]5(C)CC[C@H](O[C@H]6O[C@H](CO)[C@@H](O)[C@H](O)[C@@H]6O)C(C)(C)[C@@H]5CC[C@]43C)[C@@H]2C1 | Active | – | 25.9 | > 30 | 22 | 13.2 | > 30 | > 30 | 9.48 | 11.2 | – | Active | –
5 | COC(=O)[C@@]1(C)CC[C@]2(C)CC[C@]3(C)C(=CC(=O)[C@@H]4[C@@]5(C)CC[C@H](O[C@@H]6OC[C@H](O)[C@H](O)[C@H]6O)C(C)(C)[C@@H]5CC[C@]43C)[C@@H]2C1 | Active | – | > 30 | > 30 | > 30 | > 30 | > 30 | > 30 | 16.7 | > 30 | – | – | Active
6 | COC(=O)[C@@]1(C)CC[C@]2(C)CC[C@]3(C)C(=CC(=O)[C@@H]4[C@@]5(C)CC[C@H](O)C(C)(C)[C@@H]5CC[C@]43C)[C@@H]2C1 | Active | Active | – | – | – | – | – | – | – | – | – | – | –
7 | COC(=O)[C@@]1(C)CC[C@]2(C)CC[C@]3(C)C(=CC(=O)[C@@H]4[C@@]5(C)CC[C@H](O[C@@H]6OC[C@@H](O)[C@H](O)[C@H]6O)C(C)(C)[C@@H]5CC[C@]43C)[C@@H]2C1 | Active | – | > 30 | > 30 | > 30 | > 30 | > 30 | > 30 | > 30 | > 30 | Active | – | –
8 | COC(=O)[C@@]1(C)CC[C@]2(C)CC[C@]3(C)C(=CC(=O)[C@@H]4[C@@]5(C)CC[C@H](O[C@H]6O[C@@H](C)[C@H](O)[C@@H](O)[C@H]6O)C(C)(C)[C@@H]5CC[C@]43C)[C@@H]2C1 | Active | – | 28.9 | > 30 | > 30 | 27.2 | > 30 | 28.4 | > 30 | 23.9 | Active | – | –
